# Tests used:
# [1] = target: T1, pSTAT3 (pY705-STAT3) (Homo sapiens, UniProt P40763); test: MSD-pSTAT-PBMC Assay (pSTAT3, IL-6 stimulated); type: cell-based; conditions: PBMC, compound 3 hrs, then 10 ng/mL IL-6 for 10 min; MSD pY705-STAT3; read-out: pSTAT3
# T1 construct: host or cells: cryopreserved PBMC
# Outline: (§1)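 Human PBMCs (50,000 cells/well for STAT3, 25,000 for STAT6) treated with compound 3 h, then stimulated 10 min with 10 ng/mL IL-6 or 1 ng/mL IL-4. Lysate pSTAT3 (pY705) or pSTAT6 (pY641) measured by MSD sandwich electrochemiluminescence. Signal minus unstimulated, normalized to DMSO; IC50 by variable-slope nonlinear regression.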
# [2] = target: T2, pSTAT6 (pY641-STAT6) (Homo sapiens, UniProt P42226); test: MSD-pSTAT-PBMC Assay (pSTAT6, IL-4 stimulated); type: cell-based; conditions: compound 3 hrs, then 1 ng/mL IL-4 for 10 min
# T2 construct: host or cells: cryopreserved PBMC
# T2 sequence (P42226 1-847): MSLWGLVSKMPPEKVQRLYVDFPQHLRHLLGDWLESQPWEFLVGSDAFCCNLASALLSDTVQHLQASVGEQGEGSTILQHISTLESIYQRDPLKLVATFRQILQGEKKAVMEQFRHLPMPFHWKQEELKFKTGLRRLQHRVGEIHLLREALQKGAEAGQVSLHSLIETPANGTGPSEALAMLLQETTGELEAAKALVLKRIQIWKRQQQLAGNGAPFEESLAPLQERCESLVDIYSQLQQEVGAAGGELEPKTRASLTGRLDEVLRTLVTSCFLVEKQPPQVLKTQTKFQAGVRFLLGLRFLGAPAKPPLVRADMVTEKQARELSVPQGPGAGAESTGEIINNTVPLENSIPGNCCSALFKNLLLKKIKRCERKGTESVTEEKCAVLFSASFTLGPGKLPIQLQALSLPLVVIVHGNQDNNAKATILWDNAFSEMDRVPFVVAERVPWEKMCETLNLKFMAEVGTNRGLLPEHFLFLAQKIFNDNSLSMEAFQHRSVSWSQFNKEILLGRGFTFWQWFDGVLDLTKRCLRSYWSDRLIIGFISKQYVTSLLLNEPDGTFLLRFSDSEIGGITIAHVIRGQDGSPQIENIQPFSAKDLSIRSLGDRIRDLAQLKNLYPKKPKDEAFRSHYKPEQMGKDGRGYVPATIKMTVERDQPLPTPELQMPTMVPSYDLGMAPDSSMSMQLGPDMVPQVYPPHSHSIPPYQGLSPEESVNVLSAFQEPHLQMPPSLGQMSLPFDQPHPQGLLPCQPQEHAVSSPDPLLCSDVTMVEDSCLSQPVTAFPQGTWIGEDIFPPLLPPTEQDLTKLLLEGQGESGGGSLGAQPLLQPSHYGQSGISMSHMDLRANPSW
# Outline: as §1
# T1 sequence (P40763 whole entry): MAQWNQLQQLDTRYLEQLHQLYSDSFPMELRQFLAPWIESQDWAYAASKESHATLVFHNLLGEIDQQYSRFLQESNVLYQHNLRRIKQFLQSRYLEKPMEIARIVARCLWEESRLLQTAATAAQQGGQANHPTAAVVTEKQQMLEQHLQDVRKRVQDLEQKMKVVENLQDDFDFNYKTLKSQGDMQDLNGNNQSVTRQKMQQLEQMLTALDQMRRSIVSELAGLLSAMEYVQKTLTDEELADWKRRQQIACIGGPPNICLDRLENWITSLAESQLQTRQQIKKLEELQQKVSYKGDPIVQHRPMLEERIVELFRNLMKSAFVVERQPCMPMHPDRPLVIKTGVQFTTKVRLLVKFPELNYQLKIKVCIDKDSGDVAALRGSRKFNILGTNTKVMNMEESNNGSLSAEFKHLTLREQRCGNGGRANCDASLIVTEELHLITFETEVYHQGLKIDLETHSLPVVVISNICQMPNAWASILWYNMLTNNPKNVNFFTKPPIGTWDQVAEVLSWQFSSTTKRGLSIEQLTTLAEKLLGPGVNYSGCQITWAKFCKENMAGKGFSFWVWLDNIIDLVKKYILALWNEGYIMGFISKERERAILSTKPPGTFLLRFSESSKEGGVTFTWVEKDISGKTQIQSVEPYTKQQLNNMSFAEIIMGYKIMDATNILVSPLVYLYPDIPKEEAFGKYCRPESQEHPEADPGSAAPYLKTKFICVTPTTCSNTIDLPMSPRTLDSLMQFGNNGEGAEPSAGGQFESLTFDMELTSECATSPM
SMILES,IC50 [1] [nM],IC50 [2] [µM]
"COCCCOC(=O)OCOP(=O)(OCOC(=O)OCCCOC)C(F)(F)c1ccc2sc(C(=O)N[C@H]3C[C@@H]4C[C@@H]4C[C@H]4CC[C@@H](C(=O)N5CC(C(=O)N6CCOCC6)C5)N4C3=O)cc2c1 [Compound 169, (((difluoro(2-(((3S,6S,7aS, 8aR,9aR)-3-(3-(morpholine-4-carbonyl)azetidine-1-carbonyl)-5-oxodecahydro-1H-cyclopropa [d]pyrrolo[1,2-a]azocin-6-yl)carbamoyl)benzo[b]thiophen-5-yl)methyl)phosphoryl)bis(oxy)) bis(methylene) bis(3-methoxypropyl) bis(carbonate)]",100 to 1000,> 3
"CC(C)(C)OC(=O)OCOP(=O)(OCOC(=O)OC(C)(C)C)C(F)(F)c1ccc2sc(C(=O)N[C@H]3C[C@@H]4C[C@@H]4C[C@H]4CC[C@@H](C(=O)N5CC(C(=O)N6CCOCC6)C5)N4C3=O)cc2c1 [Compound 170, di-tert-butyl ((((difluoro(2-(((3S,6S,7aS, 8aR,9aR)-3-(3-(morpholine-4-carbonyl)azetidine-1-carbonyl)-5-oxodecahydro-1H-cyclopropa[d]pyrrolo[1,2-a]azocin-6-yl)carbamoyl)benzo[b]thiophen-5-yl)methyl)phosphoryl)bis(oxy))bis(methylene)) bis(carbonate)]",1000 to 3000,> 3
"CC(C)(C)C(=O)SCCOP(=O)(OCCSC(=O)C(C)(C)C)C(F)(F)c1ccc2sc(C(=O)N[C@H]3C[C@@H]4C[C@@H]4C[C@H]4CC[C@@H](C(=O)N5CC(C(=O)N6CCOCC6)C5)N4C3=O)cc2c1 [Compound 171, S,S′-((((difluoro(2-(((3S,6S,7aS, 8aR,9aR)-3-(3-(morpholine-4-carbonyl)azetidine-1-carbonyl)-5-oxodecahydro-1H-cyclopropa[d]pyrrolo[1,2-a]azocin-6-yl)carbamoyl)benzo[b]thiophen-5-yl)methyl)phosphoryl)bis(oxy))bis(ethane-2,1-diyl)) bis(2,2-dimethyl-propanethioate)]",< 100,> 3
"COCCOC(=O)OCOP(=O)(OCOC(=O)OCCOC)C(F)(F)c1ccc2sc(C(=O)N[C@H]3C[C@@H]4C[C@@H]4C[C@H]4CC[C@@H](C(=O)N5CC(C(=O)N6CCOCC6)C5)N4C3=O)cc2c1 [Compound 172, (((difluoro(2-(((3S,6S,7aS, 8aR,9aR)-3-(3-(morpholine-4-carbonyl)azetidine-1-carbonyl)-5-oxodecahydro-1H-cyclopropa [d]pyrrolo[1,2-a]azocin-6-yl)carbamoyl)benzo[b]thiophen-5-yl)methyl)phosphoryl)bis(oxy)) bis(methylene) bis(2-methoxyethyl) bis(carbonate)]",100 to 1000,> 3
"C[C@H](NP(=O)(Oc1ccccc1)C(F)(F)c1ccc2sc(C(=O)N[C@H]3C[C@@H]4C[C@@H]4C[C@H]4CC[C@@H](C(=O)N5CC(C(=O)N6CCOCC6)C5)N4C3=O)cc2c1)C(=O)OCc1ccccc1 (stereo partly drawn) [Compound 173, benzyl ((difluoro(2-(((3S,6S,7aS, 8aR,9aR)-3-(3-(morpholine-4-carbonyl)azetidine-1-carbonyl)-5-oxodecahydro-1H-cyclopropa[d]pyrrolo[1,2-a]azocin-6-yl)carbamoyl)benzo[b]thiophen-5-yl)methyl) (phenoxy)phosphoryl)-L-alaninate]",1000 to 3000,> 3
"CC(C)(C)C(=O)OCOP(=O)(OCOC(=O)C(C)(C)C)C(F)(F)c1ccc2sc(C(=O)N[C@H]3C[C@@H]4C[C@@H]4C[C@H]4CC[C@@H](C(=O)Nc5ccc(-c6ccccc6)cc5)N4C3=O)cc2c1 [Compound 175, ((((2-(((3S,6S,7aS, 8aR,9aR)-3-([1,1′-biphenyl]-4-ylcarbamoyl)-5-oxodecahydro-1H-cyclopropa[d]pyrrolo[1,2-a]azocin-6-yl)carbamoyl)benzo[b]thiophen-5-yl)difluoro-methyl)phosphoryl)bis(oxy)) bis(methylene) bis(2,2-dimethyl-propanoate)]",100 to 1000,> 3
"CC(C)OC(=O)OCOP(=O)(OCOC(=O)OC(C)C)C(F)(F)c1ccc2sc(C(=O)N[C@H]3C[C@@H]4C[C@@H]4C[C@H]4CC[C@@H](C(=O)N5CC(C(=O)N6CCOCC6)C5)N4C3=O)cc2c1 [Compound 176, (((difluoro(2-(((3S,6S,7aS, 8aR,9aR)-3-(3-(morpholine-4-carbonyl)azetidine-1-carbonyl)-5-oxodecahydro-1H-cyclopropa[d]pyrrolo[1,2-a]azocin-6-yl)carbamoyl)benzo[b]thiophen-5-yl)methyl)phosphoryl)bis(oxy)) bis(methylene) diisopropyl bis(carbonate)]",< 100,> 3
"CCOC(=O)CCCOP(=O)(OCCCC(=O)OCC)C(F)(F)c1ccc2sc(C(=O)N[C@H]3C[C@@H]4C[C@@H]4C[C@H]4CC[C@@H](C(=O)N5CC(C(=O)N6CCOCC6)C5)N4C3=O)cc2c1 [Compound 177, diethyl 4,4′-(((difluoro(2-(((3S,6S,7aS, 8aR,9aR)-3-(3-(morpholine-4-carbonyl)azetidine-1-carbonyl)-5-oxodecahydro-1H-cyclopropa[d]pyrrolo[1,2-a]azocin-6-yl)carbamoyl)benzo[b]thiophen-5-yl)methyl)phosphoryl)bis(oxy)) dibutyrate]",> 3000,> 3
"CCCC(=O)SCCOP(=O)(OCCSC(=O)CCC)C(F)(F)c1ccc2sc(C(=O)N[C@H]3C[C@@H]4C[C@@H]4C[C@H]4CC[C@@H](C(=O)N5CC(C(=O)N6CCOCC6)C5)N4C3=O)cc2c1 [Compound 178, S,S′-((((difluoro(2-(((3S,6S,7aS, 8aR,9aR)-3-(3-(morpholine-4-carbonyl)azetidine-1-carbonyl)-5-oxodecahydro-1H-cyclopropa[d]pyrrolo[1,2-a]azocin-6-yl)carbamoyl)benzo[b]thiophen-5-yl)methyl)phosphoryl)bis(oxy))bis(ethane-2,1-diyl)) dibutane-thioate]",< 100,0.1 to 1
"CC(C)CC(=O)SCCOP(=O)(OCCSC(=O)CC(C)C)C(F)(F)c1ccc2sc(C(=O)N[C@H]3C[C@H]4C[C@H]4C[C@H]4CC[C@@H](C(=O)N5CC(n6ccnc6)C5)N4C3=O)cc2c1 [Compound 179, S,S′-(((((2-(((3S,6S,7aR, 8aS,9aR)-3-(3-(1H-imidazol-1-yl)azetidine-1-carbonyl)-5-oxodecahydro-1H-cyclopropa[d]pyrrolo[1,2-a]azocin-6-yl)carbamoyl)benzo[b]thiophen-5-yl)difluoromethyl)phosphoryl)bis(oxy))bis(ethane-2,1-diyl)) bis(3-methylbutane thioate)]",< 100,> 3
"CC(C)(C)C(=O)SCCOP(=O)(OCCSC(=O)C(C)(C)C)C(F)(F)c1ccc2sc(C(=O)NC3CC4CC4CC4CCC(C(=O)N5CC(n6ccnc6)C5)N4C3=O)cc2c1 [Compound 180, S,S′-(((((2-(((3S,6S,7aR, 8aS,9aR)-3-(3-(1H-imidazol-1-yl)azetidine-1-carbonyl)-5-oxodecahydro-1H-cyclopropa[d]pyrrolo[1,2-a]azocin-6-yl)carbamoyl)benzo[b]thiophen-5-yl)difluoromethyl)phosphoryl)bis(oxy))bis(ethane-2,1-diyl)) bis(2,2-dimethyl-propanethioate)]",< 100,> 3

# Reference: US20250215030A1, “STAT MODULATORS AND USES THEREOF” (Recludix Pharma, Inc., priority 2022, published 2025)
